From paper PMC6194685, “The antityrosinase and antioxidant activities of flavonoids dominated by the number and location of phenolic hydroxyl groups” (Chinese Medicine, 2018)

How the values were obtained:
[1] = Hydroxyl free radical scavenging activity; details: n = 3; read-out: IC50, hydroxyl free radical scavenging capacity
Description: In the tube, 0.2 mL of samples, 1 mL of PBS buffer (pH = 7.4),0.2 mL of 5 mmol/L phenanthroline, 0.2 mL of 7.5 mmol/L FeSO4, 0.2 mL of 0.05% H2O2, 3.2 mL of ethanol were added in turn for 20 min in 37 °C. The wavelength used was 536 nm. Each sample was examined in three times and averaged. The hydroxyl free radical scavenging activity was examined according to the formula:4 Hydroxylfreeradicalscavengingactivity%=AC-AS/AC×100% where AS is the absorbance value with samples and AC is the absorbance value without samples.

[2] = test system: lipid peroxidation in rat liver mitochondria; assay: Lipid peroxidation assay in liver mitochondria in vitro (Fe2+/vitamin C); assay type: biochemical, Sprague–Dawley (SD) rats; details: n = 3, read-out: IC50, inhibiting lipid peroxidation
Description: Using the diagnostic kits from Biyuntian (Shanghai, China), liver mitochondria were obtained. The liver mitochondria from Sprague–Dawley (SD) rats were obtained, according to the references of Zuo et al.. In the tubes, 1 mL of mitochondria liquid, 0.5 mL of antioxidant solution, 0.25 mL of 1 mM Vitamin C, and 0.25 mL of 0.1 mM Fe^2+ were added in turn. The positive control group contains 0.5 mL of 0.05 M PBS buffer, instead of the antioxidant solution. The blank group was added 1 mL of mitochondrial liquid and 1 mL of 0.05 M PBS buffer. […] The test tubes were placed in the water for 30 min at 95 °C, then centrifuged for 10 min at 1372g. The wavelength used was 532 nm. Each sample was examined in three times and averaged.

[3] = ABTS free radical scavenging activity; details: n = 3; read-out: IC50, ABTS free radical scavenging capacity
Description: According to the references of Wan et al., ABTS free radical scavenging capacity was measured. […] ABTS ^+ was produced by reacting 2.45 mmol/L potassium persulfate (K2S2O8) with the ABTS stock solution. The reaction lasted 12–16 h at room temperature in the dark. […] Samples (0.5 mL) were added to ABTS^+ (5 mL) for 6 min. The control group contains 0.5 mL of ethanol and 5 mL of ABTS^+ solution. Each sample was examined in three times and averaged.

[4] = Superoxide free radical scavenging activity (pyrogallol self-oxidation); details: n = 3; read-out: IC50, superoxide free radical scavenging capacity
Description: According to the references of Shen et al., superoxide free radical scavenging capacity was measured using Varioskan Flash multifunction microplate reader (Thermo scientific, USA) and 96 wells plates. Each well was added 264 μL PBS buffer (pH = 8.2), 12 μL samples of different concentrations, 25 °C for 10 min. Then 24 μL of 1.25 mmoL/L pyrogallol solution was added and shaken 3 s quickly. The blank group is ethanol. Absorbance values were measured every 30 s. The reaction lasted 5 min in 37 °C. The wavelength used was 320 nm. Each sample was measured in triplicate and averaged. The slope is the self-oxidation rate of pyrogallol. The lower slope indicated the better superoxide free radicals scavenging capacity. Each sample was examined in three times and averaged. The inhibitory rate was examined according to the formula:5 Superoxidefreeradicalscavengingactivity%=SC-SS/SC×100% where SC is the slope value without samples and SS is the slope value with samples.

mushroom tyrosinase [5] = molecular target: T1, mushroom tyrosinase (Agaricus bisporus, UniProt C7FF04); assay: Determination of the inhibition type and inhibition constant (Lineweaver–Burk plots); assay type: biochemical; details: plots of enzyme activity versus enzyme concentration, oxidation of L-DOPA
T1 sequence (C7FF04 2-392): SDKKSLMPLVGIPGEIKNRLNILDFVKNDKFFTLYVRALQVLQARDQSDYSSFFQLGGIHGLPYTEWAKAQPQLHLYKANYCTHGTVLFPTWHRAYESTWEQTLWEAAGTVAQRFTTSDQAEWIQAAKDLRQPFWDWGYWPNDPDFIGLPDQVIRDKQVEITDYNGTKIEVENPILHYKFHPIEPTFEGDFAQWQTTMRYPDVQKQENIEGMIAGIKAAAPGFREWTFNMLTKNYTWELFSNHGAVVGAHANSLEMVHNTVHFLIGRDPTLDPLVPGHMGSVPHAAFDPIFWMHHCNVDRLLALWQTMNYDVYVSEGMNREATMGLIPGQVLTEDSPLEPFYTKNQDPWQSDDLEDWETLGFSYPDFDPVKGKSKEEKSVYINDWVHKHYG
T1 sequence (G1K3P4 1-150 partner): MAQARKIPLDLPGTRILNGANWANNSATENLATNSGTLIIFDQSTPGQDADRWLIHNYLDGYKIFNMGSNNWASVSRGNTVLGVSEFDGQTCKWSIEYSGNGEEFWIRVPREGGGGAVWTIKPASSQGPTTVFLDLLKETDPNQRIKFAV

[6] = DPPH free radical scavenging activity; details: n = 3; read-out: IC50, DPPH free radical scavenging capacity
Description: According to the references of Lee et al., DPPH free radical scavenging capacity was measured. […] In room temperature and a dark environment, the reaction lasted 30 min. […] Each sample was examined in three times and averaged.

mushroom tyrosinase [7] = molecular target: T1, mushroom tyrosinase; assay: Determination of the inhibition type and inhibition constant (Lineweaver–Burk plots); assay type: biochemical; details: for inhibition type: Lineweaver–Burk double-reciprocal plots, tyrosinase diphenolase; for KIS (inhibitor binding with enzyme–substrate complex): plot of vertical intercept (1/Vmapp) versus inhibitor concentration, oxidation of L-DOPA
Description: By Lineweaver–Burk plot, the inhibition type was assayed. The inhibition constant was assayed by the second plots of the apparent Km/Vmapp or 1/Vmapp versus the concentration of the inhibitor.

[8] = design: method as in Xu [31]; details: ref Xu [31]; cited from earlier work
[9] = design: method as in Xu [31]; details: ref Xu [31]; cited from earlier work; remark: listed apart in the source
[10] = design: method as in Xu [31]; details: ref Xu [31]; cited from earlier work; remark: listed apart in the source
[11] = discussion; no reference given; cited from earlier work
[12] = discussion; no reference given; cited from earlier work; remark: listed apart in the source

| Compound | IC50 [1] [µM] | IC50 [2] [µM] | IC50 [3] [µM] | IC50 [4] [µM] | inhibitory mechanism (reversibility) (mushroom tyrosinase [5]) | IC50 [6] [µM] | inhibition type (mushroom tyrosinase [7]) | KIS (inhibitor binding with enzyme–substrate complex) (mushroom tyrosinase [7]) [µM] | scavenging capacity of hydroxyl radical (·OH) [8] [%] | scavenging capacity of alkane radical (ROO·) [9] [%] | scavenging capacity of superoxide radical (O2·) [10] [%] | reducing ability [11] [%] | KIS (Fig. 3c) (mushroom tyrosinase [7]; plot of intercept versus concentration of shikonin) [µmol/L] | maximum inhibition, DPPH-radical scavenging assay [12] [%] |
| --- | --- | --- | --- | --- | --- | --- | --- | --- | --- | --- | --- | --- | --- | --- |
| O=c1cc(-c2ccccc2)oc2cc(O)c(O)c(O)c12 [Baicalein] | 11.6 | 12.5 | 9.09 | 16.1 | reversible inhibitors | 58.6 | same inhibitor type as shikonin | 38.4 |  |  |  |  |  |  |
| O=C1c2c(O)cc(O)cc2O[C@H](c2cc(O)c(O)c(O)c2)[C@H]1O [Dihydromyricetin] | 4.2 | 6.25 | 3.41 | 7.6 | reversible inhibitors | 12.4 | same inhibitor type as shikonin | 23.6 | 83.9 | 63.9 | 90.0 |  |  |  |
| O=C(/C=C/c1ccc(O)c(O)c1)O[C@H](Cc1ccc(O)c(O)c1)C(=O)O [Rosmarinic acid] | 8.3 | 8.33 | 6.82 | 12.3 | reversible inhibitors | 28.5 | same inhibitor type as shikonin | 29.8 |  |  |  |  |  |  |
| CC(C)=CC[C@@H](O)C1=CC(=O)c2c(O)ccc(O)c2C1=O [Shikonin] | 18.3 | 16.7 | 27.3 | 31.5 | reversible inhibitor | 83.2 | competitive–uncompetitive mixed type inhibitor | 48.6 |  |  |  | 0.431 | 48.6 |  |
| CC(C)=CCCC1=CC(=O)c2c(O)ccc(O)c2C1=O [deoxy-shikonin] |  |  |  |  |  |  |  |  |  |  |  |  |  | 0.440 |
| Isoeugenol | 32.5 | 25.1 | 36.4 | 38.2 | reversible inhibitors | 102 | same inhibitor type as shikonin | 64.7 |  |  |  |  |  |  |
